Like-named read-outs stand apart in the source and are kept apart here.
Experiments:
[1] = target: T1, rat isoform of TRPM8 channels (Rattus norvegicus, UniProt Q8R455); assay: Ca2+ fluorimetric assay, menthol-activated channel; assay type: cell-based
T1 construct: expressed in transfected cells
Method: TRPM8 blocker activity of all synthesized compounds was tested by Ca^2+ fluorimetric assays using HEK-293 cells stably expressing the rat isoform of TRPM8 channels, using menthol and AMTB as prototypical agonist and antagonist, respectively.
For measurement of the potency of the compounds, fluorimetric experiments were performed using HEK-293 cells (CRL-1573TM, American Type Culture Collection, LGC Promochem, Molsheim, France) that stably express rat TRPM8. The cells were seeded in 96-well plates (Corning Incorporated, Corning, NY) at a cell density of 40 000 cells 2 days before treatment. On the day of treatment, the medium was replaced with 100 μL of the dye loading solution Fluo-4 NW supplemented with probenecid 2.5 mM.
The tested molecules dissolved in DMSO were added at the desired concentrations, and the plates were incubated in darkness at 37 °C in a humidified atmosphere of 5% CO2 for 60 min. The fluorescence was measured using instrument settings appropriate for excitation at 485 nm and emission at 535 nm (POLARstar Omega BMG LABtech). A baseline recording of four cycles was recorded prior to stimulation with the agonist (100 μM menthol for TRPM8). The TRPM8 antagonist, 10 μM AMTB, was added to the medium containing the corresponding agonist to induce channel blockade. The changes in fluorescence intensity were recorded during 15 cycles more. The higher concentration of DMSO used in the experiment was added to the control wells. The cells’ fluorescence was measured before and after the addition of various concentrations of test compounds. The fluorescence values obtained are normalized to that prompted by the corresponding agonist (for channel activating compounds) or upon agonist and antagonist coexposure (for channel blocker compounds).

human TRPM8 [2] = target: T2, human TRPM8 (Homo sapiens, UniProt Q7Z2W7); assay: cell-based; conditions: HEK293, read-out: % Inhibition 300 μM menthol-evoked currents at 300 nM compounds, HEK-293 cells expressing human TRPM8, compound 300 nM
T2 sequence (Q7Z2W7 whole entry): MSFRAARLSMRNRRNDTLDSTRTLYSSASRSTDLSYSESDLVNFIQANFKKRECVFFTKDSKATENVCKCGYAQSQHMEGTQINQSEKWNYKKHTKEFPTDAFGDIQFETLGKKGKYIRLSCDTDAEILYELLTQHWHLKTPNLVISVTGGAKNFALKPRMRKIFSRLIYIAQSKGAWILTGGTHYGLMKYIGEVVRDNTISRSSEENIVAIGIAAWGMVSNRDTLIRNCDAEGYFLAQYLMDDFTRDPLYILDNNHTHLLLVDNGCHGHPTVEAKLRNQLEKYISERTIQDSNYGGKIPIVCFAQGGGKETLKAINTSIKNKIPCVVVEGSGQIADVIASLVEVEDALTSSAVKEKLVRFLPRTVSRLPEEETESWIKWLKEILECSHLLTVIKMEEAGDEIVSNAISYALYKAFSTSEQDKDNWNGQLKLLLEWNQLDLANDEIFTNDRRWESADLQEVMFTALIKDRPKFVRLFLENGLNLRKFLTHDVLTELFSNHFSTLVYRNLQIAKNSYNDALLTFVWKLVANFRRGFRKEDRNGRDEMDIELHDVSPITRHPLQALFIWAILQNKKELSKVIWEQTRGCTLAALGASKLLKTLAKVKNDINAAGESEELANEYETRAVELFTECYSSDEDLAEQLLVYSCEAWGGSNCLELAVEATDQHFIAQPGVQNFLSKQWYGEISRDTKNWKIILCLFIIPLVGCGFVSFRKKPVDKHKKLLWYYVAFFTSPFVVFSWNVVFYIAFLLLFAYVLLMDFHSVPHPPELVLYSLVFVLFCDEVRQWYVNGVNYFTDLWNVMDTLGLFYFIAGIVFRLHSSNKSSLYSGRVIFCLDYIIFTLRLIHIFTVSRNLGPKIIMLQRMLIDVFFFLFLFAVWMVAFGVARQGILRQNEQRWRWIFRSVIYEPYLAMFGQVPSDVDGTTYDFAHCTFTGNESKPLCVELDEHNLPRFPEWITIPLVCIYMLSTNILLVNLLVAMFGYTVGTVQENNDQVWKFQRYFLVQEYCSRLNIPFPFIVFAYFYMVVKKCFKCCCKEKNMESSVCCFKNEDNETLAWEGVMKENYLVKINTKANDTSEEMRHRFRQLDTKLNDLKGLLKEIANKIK

human TRPM8 [3] = target: T2, human TRPM8; conditions: HEK-293 cells expressing human TRPM8, compound 300 nM
hTRPA1 = target: T3, hTRPA1 (Homo sapiens, UniProt O75762); assay: Selectivity fluorimetric assay, HEK-293 cells; assay type: cell-based; conditions: AITC as reference agonist
T3 construct: expressed in transfected cells; host or cells: HEK-293, stably transfected
T3 sequence (O75762 whole entry): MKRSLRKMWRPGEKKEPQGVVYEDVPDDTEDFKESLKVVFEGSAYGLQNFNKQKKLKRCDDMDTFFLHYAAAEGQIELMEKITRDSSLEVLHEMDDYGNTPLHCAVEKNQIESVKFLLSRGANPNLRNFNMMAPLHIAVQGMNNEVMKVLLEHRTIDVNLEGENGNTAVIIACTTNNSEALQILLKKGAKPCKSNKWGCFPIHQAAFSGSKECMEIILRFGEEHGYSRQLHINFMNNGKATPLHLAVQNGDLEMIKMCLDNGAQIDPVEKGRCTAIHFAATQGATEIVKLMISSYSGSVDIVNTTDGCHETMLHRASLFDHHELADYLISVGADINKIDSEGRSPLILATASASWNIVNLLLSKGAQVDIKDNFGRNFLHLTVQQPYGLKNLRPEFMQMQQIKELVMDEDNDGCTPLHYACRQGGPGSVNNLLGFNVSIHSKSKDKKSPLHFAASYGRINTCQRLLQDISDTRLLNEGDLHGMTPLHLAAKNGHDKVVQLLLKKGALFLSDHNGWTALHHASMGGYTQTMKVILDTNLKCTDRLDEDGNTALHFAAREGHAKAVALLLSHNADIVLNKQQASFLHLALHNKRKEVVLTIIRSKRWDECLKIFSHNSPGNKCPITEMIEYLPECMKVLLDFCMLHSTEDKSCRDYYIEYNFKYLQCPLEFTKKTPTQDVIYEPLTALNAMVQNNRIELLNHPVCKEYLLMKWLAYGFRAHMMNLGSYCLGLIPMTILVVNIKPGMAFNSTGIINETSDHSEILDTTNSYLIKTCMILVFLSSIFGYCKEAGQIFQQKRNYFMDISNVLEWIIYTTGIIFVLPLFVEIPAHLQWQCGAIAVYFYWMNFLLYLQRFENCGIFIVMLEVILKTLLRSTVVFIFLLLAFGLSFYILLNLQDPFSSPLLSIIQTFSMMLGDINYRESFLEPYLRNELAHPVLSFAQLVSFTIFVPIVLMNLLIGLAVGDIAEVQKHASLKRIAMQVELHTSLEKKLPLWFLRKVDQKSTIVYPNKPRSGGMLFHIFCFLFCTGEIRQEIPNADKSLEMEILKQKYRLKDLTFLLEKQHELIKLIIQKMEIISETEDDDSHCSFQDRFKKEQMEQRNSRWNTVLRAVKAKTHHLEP

Swiss CD1 mice = assay: CCI neuropathic pain model, thermal gradient ring; assay type: in vivo
Text: Further we investigated the efficacy of 31a in a chronic constriction injury (CCI) model of neuropathic pain, using a thermal gradient ring assay. This assay deeply differs from the canonical reflexive measures of nociception, in which the end point is withdrawal to a noxious stimulus, a fact that has been questioned during the past years for their unsatisfactory translation.[34] In particular, this test integrates information on temperature perception distinguishing exploratory behavior from thermal preference behavior.[35a]
The mean temperature to which the sham animal located during the observation time was 27.9 °C ± 0.35 °C (Figure 7A), and no statistical differences were evidenced at the different time points (Figure 7B). […] It is questionable why this transient effect was recorded, but it must be considered that TRPM8 antagonists are able to decrease the body temperature.
Neuropathic pain behavior was induced by ligation of the sciatic nerve as described previously.[27d] […] Drug effects were evaluated 7 and 14 days after ligation.
We utilized the thermal gradient ring from Ugo-Basile previously using a modified protocol from Touska et al., 2016.[35] […] On day 2, mice were injected and 30 min after were placed in the apparatus and measured for 60 min using 15–40 °C. […]

C57/BL6 mice = assay: Oxaliplatin-induced cold allodynia, acetone drop method; assay type: in vivo
Method: This effect was still evident 30 min after administration of a 30 μg dose (Figure 6).
Data are given as the mean ± SEM n = 6. Statistical analysis was two-way ANOVA followed by post hoc Bonferroni test by multiple comparison: ***p < 0.001, ****p < 0.0001.
For the oxaliplatin-induced neuropathic pain assay, oxaliplatin (Tocris) was dissolved in water with gentle warming and was subcutaneously (sc) injected on days 1, 3, and 5 at a 6 mg/kg dose. The day 7 after administration, experiments were performed. Together with oxaliplatin injection, saline and a 5% mannitol solution were intraperitoneally injected to prevent kidney damage and dehydration. 31a stock was prepared in DMSO (Sigma-Aldrich) and diluted in saline for injections.
Cold chemical thermal sensitivity was assessed using acetone drop method.[18b] Mice were placed in a metal mesh cage and allowed to habituate for approximately 30 min in order to acclimatize them. Freshly dispensed acetone drop (10 μL) was applied gently onto the mid-plantar surface of the hind paw. Cold chemical sensitive reaction with respect to paw licking was recorded as a positive response (nociceptive pain response). The responses were measured for 20 s with a digital stopwatch. For each measurement, the paw was sampled twice and the mean was calculated. The interval between each application of acetone was approximately 5 min.

[4] = In vitro metabolic stability using liver microsomes; assay type: in vitro ADME, human; conditions: protocol II, NADPH and UDP-GlcUA, 37 °C, 60 min
Method: Compound 4 was used as reference, considering that its main pitfall was represented by metabolic instability that the newly synthesized compounds were aimed in overcoming. […] Each sample (2.5 mM) was incubated with 100 mM phosphate buffer (pH 7.4) and 20 mg/mL of liver microsomes (Thermo Fisher Scientific, Bremen, Germany). After preincubation in water bath for 5 min, the mixture was incubated with 20 mM NADPH (protocol I) at 37 °C for 60 min in a Thermomixer comfort (Eppendorf, Hamburg, Germany). For the measurement of UGT activity the microsomes were preincubated with alamethicin, which forms pores in microsomal membranes, promoting access of substrate and cofactor to UGT enzymes. Subsequently, each sample was incubated with 100 mM phosphate buffer, 500 mM magnesium chloride, 10 mM NADPH, and 20 mM UDP-GlcUA at 37 °C for 60 min. Finally, the reactions from both protocols (protocols I and II) were stopped by the addition of 200 μL of ice-cold methanol, and then samples were centrifuged at 10 000 rpm at 25 °C for 5 min (Eppendorf microcentrifuge 5424, Hamburg, Germany). The supernatants were collected and injected in UHPLC-PDA. The control at 0 min was obtained by addition of the organic solvent immediately after incubation with microsomes. […] The extent of metabolism is expressed as a percentage of the parent compound turnover using the following equation, as previously described:[43] […]

hTRPV1 = target: T4, hTRPV1 (Homo sapiens, UniProt Q8NER1); assay: Selectivity fluorimetric assay, CHO-K1 cells; assay type: cell-based; conditions: capsaicine as reference agonist
T4 construct: expressed in transfected cells; host or cells: CHO-K1, stably transfected
T4 sequence (Q8NER1 whole entry): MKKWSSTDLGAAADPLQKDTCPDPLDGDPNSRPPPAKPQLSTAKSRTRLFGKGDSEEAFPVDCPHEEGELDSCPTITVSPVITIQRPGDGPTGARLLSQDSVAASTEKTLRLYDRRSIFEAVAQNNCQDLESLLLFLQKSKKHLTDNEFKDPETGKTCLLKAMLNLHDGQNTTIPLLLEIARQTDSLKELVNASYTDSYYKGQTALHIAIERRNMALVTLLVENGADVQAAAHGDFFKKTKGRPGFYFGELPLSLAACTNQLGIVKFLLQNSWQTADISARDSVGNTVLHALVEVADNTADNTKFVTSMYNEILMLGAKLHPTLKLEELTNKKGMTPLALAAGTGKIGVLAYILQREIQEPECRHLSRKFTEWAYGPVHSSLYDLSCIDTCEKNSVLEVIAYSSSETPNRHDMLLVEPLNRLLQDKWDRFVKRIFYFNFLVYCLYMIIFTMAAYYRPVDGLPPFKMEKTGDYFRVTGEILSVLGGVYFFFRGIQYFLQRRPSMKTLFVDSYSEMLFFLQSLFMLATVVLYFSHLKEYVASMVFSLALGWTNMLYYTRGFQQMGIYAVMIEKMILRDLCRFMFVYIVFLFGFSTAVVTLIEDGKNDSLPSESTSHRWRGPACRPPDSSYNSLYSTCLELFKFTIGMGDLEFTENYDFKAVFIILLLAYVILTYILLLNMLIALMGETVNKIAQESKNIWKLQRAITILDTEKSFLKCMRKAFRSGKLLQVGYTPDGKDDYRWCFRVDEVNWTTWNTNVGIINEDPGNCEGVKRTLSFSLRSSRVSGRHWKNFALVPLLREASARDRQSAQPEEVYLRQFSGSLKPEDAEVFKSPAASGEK

hNav1.7 = target: T5, hNav1.7 (Homo sapiens, UniProt Q15858); assay: Selectivity fluorimetric assay, HEK-293 cells; assay type: cell-based; conditions: veratridine as reference agonist
T5 construct: expressed in transfected cells; host or cells: HEK-293, stably transfected

TRPM8 = tested on: TRPM8; design: method as in PMID 26847872, PMID 25125580; conditions: patch-clamp recordings; 18b; cited from earlier work
[5] = HEK-293 cells stably expressing rat TRPM8, menthol as agonist, mean ± SD of at least three measurements, read-out: IC50
[6] = Table 2, Ca2+ fluorimetric assay, read-out: IC50 Ca2+

T1 sequence (Q8R455 whole entry, canonical isoform): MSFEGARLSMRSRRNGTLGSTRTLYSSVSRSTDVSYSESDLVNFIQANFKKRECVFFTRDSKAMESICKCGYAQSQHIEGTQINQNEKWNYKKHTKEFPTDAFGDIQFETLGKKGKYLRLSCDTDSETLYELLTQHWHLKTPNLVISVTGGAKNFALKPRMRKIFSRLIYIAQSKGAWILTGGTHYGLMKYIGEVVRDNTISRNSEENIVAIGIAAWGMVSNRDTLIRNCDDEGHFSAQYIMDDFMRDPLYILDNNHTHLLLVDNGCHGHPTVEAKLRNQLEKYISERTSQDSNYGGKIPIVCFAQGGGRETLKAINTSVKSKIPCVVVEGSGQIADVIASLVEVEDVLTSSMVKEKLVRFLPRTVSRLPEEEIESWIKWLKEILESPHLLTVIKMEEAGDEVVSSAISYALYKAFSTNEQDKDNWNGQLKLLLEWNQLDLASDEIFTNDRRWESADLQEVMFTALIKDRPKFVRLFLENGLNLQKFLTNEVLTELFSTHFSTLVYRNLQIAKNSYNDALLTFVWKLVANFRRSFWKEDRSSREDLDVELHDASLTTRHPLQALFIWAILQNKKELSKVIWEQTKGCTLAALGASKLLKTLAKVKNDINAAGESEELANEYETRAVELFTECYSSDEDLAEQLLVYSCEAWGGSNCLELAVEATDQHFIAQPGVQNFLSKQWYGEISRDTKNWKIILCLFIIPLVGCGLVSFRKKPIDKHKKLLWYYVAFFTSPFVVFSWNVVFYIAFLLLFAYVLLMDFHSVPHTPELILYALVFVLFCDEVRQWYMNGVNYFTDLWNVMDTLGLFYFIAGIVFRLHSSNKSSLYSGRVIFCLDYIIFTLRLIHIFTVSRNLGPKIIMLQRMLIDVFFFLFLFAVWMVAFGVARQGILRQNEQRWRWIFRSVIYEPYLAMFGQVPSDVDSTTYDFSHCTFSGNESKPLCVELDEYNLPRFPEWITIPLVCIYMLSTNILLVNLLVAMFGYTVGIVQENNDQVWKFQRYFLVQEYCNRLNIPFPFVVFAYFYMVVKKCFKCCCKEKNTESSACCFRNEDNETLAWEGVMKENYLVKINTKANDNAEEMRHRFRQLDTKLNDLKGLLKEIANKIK

inhibition at 0.3 µM (human TRPM8 [2])	% Inhibition 300 μM menthol-evoked currents at 300 nM compounds (human TRPM8 [3])	SMILES	IC50 [1, 5]	IC50 [1, 6]	rTRPM8 IC50 (calcium microfluorimetric assays) ([1]; supplementary xlsx)	activity as agonist or antagonist on TRPA1 (hTRPA1)	mean preferred temperature (Swiss CD1 mice; CCI mice 14 days after ligation, 11.5 mg/kg ip, gradient 15-40 °C)	effect on temperature preferences (Swiss CD1 mice; sham-mice)	inhibition of OXP-induced cold allodynia (paw licking) (C57/BL6 mice; 1 μg sc, single administration)	inhibition of OXP-induced cold allodynia (paw licking) (C57/BL6 mice; 10 μg sc)	inhibition of OXP-induced cold allodynia (paw licking) (C57/BL6 mice; 30 μg sc)	inhibition of OXP-induced cold allodynia 30 min after administration (C57/BL6 mice; 30 μg sc, 30 min)	time of maximum inhibitory effect (C57/BL6 mice; 10 and 30 μg sc)	metabolic turnover, phase I + phase II [4]	activity as agonist or antagonist on TRPV1 (hTRPV1)	activity as agonist or antagonist on Nav1.7 (hNav1.7)	IC50 (TRPM8)
34%	34.1±9.6%	O=C(O)CC[C@H]1N[C@H](C(=O)NCc2ccc(F)cc2)Cc2c1[nH]c1ccccc21 [12a, 3-((1R,3S)-3-((4-Fluorobenzyl)carbamoyl)-2,3,4,9-tetrahydro-1H-pyrido[3,4-b]indol-1-yl)propanoic Acid]	5 ± 1.2 µM	5 ± 1.2 µM	–	–	–	–	–	–	–	–	–	–	–	–	–
–	–	O=C1[C@@H]2Cc3c([nH]c4ccccc34)[C@@H](c3ccc(Cl)cc3)N2C(=O)N1Cc1ccc(F)cc1 [31a, (5R,11aS)-5-(4-Chlorophenyl)-2-(4-fluorobenzyl)-5,6,11,11a-tetrahydro-1H-imidazo[1′,5′:1,6]pyrido[3,4-b]indole-1,3(2H)-dione]	0.5 ± 0.3 µM	>30 µM	> 30 µM	no activity as agonists or antagonists	33.30 °C	No effects	not effective	remarkable inhibitory effect	remarkable inhibitory effect	still evident	15 min	46.0 ± 2.3%	no activity as agonists or antagonists	no activity as agonists or antagonists	–
–	–	c1ccc(CN(CCc2c[nH]c3ccccc23)Cc2ccccc2)cc1 [compound 3]	–	–	–	–	–	–	–	–	–	–	–	–	–	–	0.367 µM

Reference: publication PMC8009520, “Exploration of TRPM8 Binding Sites by β-Carboline-Based Antagonists and Their In Vitro Characterization and In Vivo Analgesic Activities” (Journal of Medicinal Chemistry, 2020)
